Entries after “also recorded” stand apart in the source; their conditions may differ. Counter-ions that a name gives are not always drawn.

This assay deals with influx of neutrophils to the lung in LPS-challenged rats. The experiment in a line: Rat LPS neutrophilia model. In kind it is in vivo. Particulars: intratracheal, LPS aerosol 100 ug/ml 15 min, lavage 4 hours later, in at least one of the range of conditions tested, significant p<0.05, nonsignificant p>0.05. The procedure: The effect of compounds on the influx of neutrophils to the lung in LPS-challenged rats is evaluated as follows. The test compound is suspended in one of the following solutions: 0.5% tween 80/PBS, 0.5% tween 80/saline, 10% EtOH/saline (with pH adjusted to 2.0, or 8.0 with HCl, or unadjusted), Saline @ pH 2.0, 6.5 or 8.0, 0.5% Tragacanth, 1% DMSO/20% Encapsin/Saline, or acidified 5% Tragacanth. The suspension process may be aided by the use of a glass homogenizer. For intratracheal administration, the animals are anesthetized with inhaled isoflurane and placed in a supine position, the trachea is intubated with a steel gavage needle (1.5 inch, 22 gauge, small ball) or a Penn-Century Microsprayer Aerosolizer (model IA-IB) and 200 ul of dosing solution is delivered. The animals are visually monitored during the recovery process, which typically occurs within two minutes. It is noted that the test compounds may be alternatively administered via the microsprayer in a dry powder blend with a suitable excipient, such as lactose.
Rats treated with compound or vehicle (15 min-24 hours pretreatment) are exposed to an LPS aerosol (100 ug/ml) for 15 min. Four hours later the rats are euthanized with pentobarbital (100 mg/kg, i.p.) and the airways are lavaged with 5 washes of 5 ml of phosphate buffered saline. The harvested cells are stained (Diffquick) and counted to determine total and differential cell data. […] Inhibition of neutrophil levels relative to no compound controls is calculated based on the differential counts.
The data is obtained as % inhibition using a particular concentration and pretreat time.
Regarding `CNCCNc1nc(-c2cc(C(=O)NCC3CC3)ccc2C)c2ccc(=O)n(-c3c(F)cccc3F)c2n1` [Example 4], the “inhibition of neutrophilia (neutrophil levels in lung lavage relative to no compound controls)” value was “statistically significant inhibition”.
Next, `Cc1ccc(C(=O)NCc2ccccc2)cc1-c1nc(N2CCC(N)CC2)nc2c1ccc(=O)n2-c1c(F)cccc1F` [Example 71, 3-[2-(4-amino-1-piperidinyl)-8-(2,6-difluorophenyl)-7-oxo-7,8-dihydropyrido[2,3-d]pyrimidin-4-yl]-4-methyl-N-(phenylmethyl)benzamide]: “statistically nonsignificant inhibition”.
In the case of `CCN(CC)CCCNc1nc(-c2cc(C(=O)N(C)C)ccc2C)c2ccc(=O)n(-c3c(F)cccc3F)c2n1` [Example 120, 3-[2-{[3-(diethylamino)-propyl]amino}-8-(2,6-difluorophenyl)-7-oxo-7,8-dihydropyrido[2,3-d]-pyrimidin-4-yl]-N,N,4-trimethylbenzamide] it was “statistically nonsignificant inhibition; also recorded: inactive”.
Consider `CCN(CC)CCCNc1nc(-c2cc(C(=O)NC3CC3)cc(F)c2C)c2ccc(=O)n(-c3c(F)cccc3F)c2n1` [Example 185, N-cyclopropyl-3-[2-{[3-(diethylamino)propyl]amino}-8-(2,6-difluorophenyl)-7-oxo-7,8-dihydropyrido[2,3-d]-pyrimidin-4-yl]-5-fluoro-4-methylbenzamide], for which the “inhibition of neutrophilia (neutrophil levels in lung lavage relative to no compound controls)” value was “statistically nonsignificant inhibition”.
Next, `Cc1ccc(C(=O)Nc2nccs2)cc1-c1nc(NC2CC(C)(C)NC(C)(C)C2)nc2c1ccc(=O)n2-c1c(F)cccc1F` [Example 67, 3-{8-(2,6-difluorophenyl)-7-oxo-2-[(2,2,6,6-tetramethyl-4-piperidinyl)amino]-7,8-dihydropyrido[2,3-d]pyrimidin-4-yl}-4-methyl-N-1,3-thiazol-2-ylbenzamide]: “statistically nonsignificant inhibition”; `CCCNC(=O)c1ccc(C)c(-c2nc(N3CCC(N4CCC(C)CC4)CC3)nc3c2ccc(=O)n3-c2c(F)cccc2F)c1` [Example 166, 3-[8-(2,6-difluorophenyl)-2-(4-methyl-1,4′-bipiperidin-1′-yl)-7-oxo-7,8-dihydropyrido[2,3-d]pyrimidin-4-yl]-4-methyl-N-propylbenzamide]: “statistically significant inhibition”; `Cc1ccc(C(=O)NCC2CC2)cc1-c1nc(N2CCC(N)CC2)nc2c1ccc(=O)n2-c1c(F)cccc1F` [Example 27, 3-[2-(4-amino-1-piperidinyl)-8-(2,6-difluorophenyl)-7-oxo-7,8-dihydropyrido[2,3-d]pyrimidin-4-yl]-N-(cyclopropylmethyl)-4-methylbenzamide]: “statistically significant inhibition”.
On to `Cc1ccc(C(=O)NCc2ccccc2)cc1-c1nc(NCc2ncc[nH]2)nc2c1ccc(=O)n2-c1c(F)cccc1F` [Example 77, 3-{8-(2,6-difluorophenyl)-2-[(1H-imidazol-2-ylmethyl)amino]-7-oxo-7,8-dihydropyrido[2,3-d]pyrimidin-4-yl}-4-methyl-N-(phenylmethyl)benzamide], for which the “inhibition of neutrophilia (neutrophil levels in lung lavage relative to no compound controls)” value is on record as “statistically significant inhibition”.
Next, `Cc1ccc(C(=O)NCC(F)(F)F)cc1-c1nc(N2CCC(N3CCC(C)CC3)CC2)nc2c1ccc(=O)n2-c1c(F)cccc1F` [Example 172, 3-[8-(2,6-difluorophenyl)-2-(4-methyl-1,4′-bipiperidin-1′-yl)-7-oxo-7,8-dihydropyrido[2,3-d]pyrimidin-4-yl]-4-methyl-N-(2,2,2-trifluoroethyl)benzamide]: “inactive”.
Next, `Cc1ccc(C(=O)Nc2ccc(F)cc2)cc1-c1nc(N2CCC(N)CC2)nc2c1ccc(=O)n2-c1c(F)cccc1F` [Example 72]: “statistically significant inhibition”; `CCN(CC)CCCNc1nc(-c2cc(C(=O)NCC3CCCC3)ccc2C)c2ccc(=O)n(-c3c(F)cccc3F)c2n1` [Example 132, N-(cyclopentylmethyl)-3-[2-{[3-(diethylamino)propyl]amino}-8-(2,6-difluorophenyl)-7-oxo-7,8-dihydropyrido[2,3-d]pyrimidin-4-yl]-4-methylbenzamidetrifluoroacetate]: “statistically nonsignificant inhibition”.
Next, `Cc1ccc(C(=O)Nc2ccc(F)cc2)cc1-c1nc(NCCN(C)C(=O)OC(C)(C)C)nc2c1ccc(=O)n2-c1c(F)cccc1F` [Example 95, 1,1-dimethylethyl (2-{[8-(2,6-difluorophenyl)-4-(5-{[(4-fluorophenyl)amino]carbonyl}-2-methylphenyl)-7-oxo-7,8-dihydropyrido[2,3-d]pyrimidin-2-yl]amino}ethyl)methylcarbamate]: “statistically nonsignificant inhibition”; `CCN(CC)CCCNc1nc(-c2cc(C(=O)NC)ccc2C)c2ccc(=O)n(-c3c(F)cccc3F)c2n1` [Example 119, 3-[2-{[3-(diethylamino)propyl]amino}-8-(2,6-difluorophenyl)-7-oxo-7,8-dihydropyrido[2,3-d]pyrimidin-4-yl]-N,4-dimethylbenzamide]: “statistically significant inhibition”.
As for `Cc1ccc(C(=O)Nc2ccc(F)cc2)cc1-c1nc(N(C)CCCN(C)C)nc2c1ccc(=O)n2-c1c(F)cccc1F` [Example 115, 3-{8-(2,6-difluorophenyl)-2-[[3-(dimethylamino)propyl](methyl)amino]-7-oxo-7,8-dihydropyrido[2,3-d]pyrimidin-4-yl}-N-(4-fluorophenyl)-4-methylbenzamide], the “inhibition of neutrophilia (neutrophil levels in lung lavage relative to no compound controls)” value is reported as “statistically nonsignificant inhibition”.
Next, `CCN(CC)CCCNc1nc(-c2cc(C(=O)NC3CCC3)ccc2C)c2ccc(=O)n(-c3c(F)cccc3F)c2n1` [Example 137, N-cyclobutyl-3-[2-{[3-(diethylamino)propyl]amino}-8-(2,6-difluorophenyl)-7-oxo-7,8-dihydropyrido[2,3-d]pyrimidin-4-yl]-4-methylbenzamide trifluoroacetate]: “statistically significant inhibition”; `CCNC(=O)c1ccc(C)c(-c2nc(N3CCC(N4CCC(C)CC4)CC3)nc3c2ccc(=O)n3-c2c(F)cccc2F)c1` [Example 173, 3-[8-(2,6-difluorophenyl)-2-(4-methyl-1,4′-bipiperidin-1′-yl)-7-oxo-7,8-dihydropyrido[2,3-d]pyrimidin-4-yl]-N-ethyl-4-methylbenzamide]: “statistically significant inhibition”; `CCCNC(=O)c1ccc(C)c(-c2nc(N3CCC(N)CC3)nc3c2ccc(=O)n3-c2c(F)cccc2F)c1` [Example 69, 3-[2-(4-amino-1-piperidinyl)-8-(2,6-difluorophenyl)-7-oxo-7,8-dihydropyrido[2,3-d]pyrimidin-4-yl]-4-methyl-N-propylbenzamide]: “statistically significant inhibition”.
For the compound `Cc1ccc(C(=O)NC2CCCC2)cc1-c1nc(N2CCC(N3CCC(C)CC3)CC2)nc2c1ccc(=O)n2-c1c(F)cccc1F` [Example 169, N-cyclopentyl-3-[8-(2,6-difluorophenyl)-2-(4-methyl-1,4′-bipiperidin-1′-yl)-7-oxo-7,8-dihydropyrido[2,3-d]pyrimidin-4-yl]-4-methylbenzamide], the “inhibition of neutrophilia (neutrophil levels in lung lavage relative to no compound controls)” value was “statistically nonsignificant inhibition”.
Turning to `Cc1ccc(C(=O)Nc2nccs2)cc1-c1nc(NCCCNC(C)C)nc2c1ccc(=O)n2-c1c(F)cccc1F` [Example 101, 3-[8-(2,6-difluorophenyl)-2-({3-[(1-methylethyl)amino]propyl}amino)-7-oxo-7,8-dihydropyrido[2,3-d]pyrimidin-4-yl]-4-methyl-N-1,3-thiazol-2-ylbenzamide], the “inhibition of neutrophilia (neutrophil levels in lung lavage relative to no compound controls)” value is “statistically significant inhibition”.
In the case of `Cc1ccc(C(=O)NCC(C)C)cc1-c1nc(N2CCC(N3CCC(C)CC3)CC2)nc2c1ccc(=O)n2-c1c(F)cccc1F` [Example 168, 3-[8-(2,6-difluorophenyl)-2-(4-methyl-1,4′-bipiperidin-1′-yl)-7-oxo-7,8-dihydropyrido[2,3-d]pyrimidin-4-yl]-4-methyl-N-(2-methylpropyl)benzamide] it was “inactive”; in that of `CNCCNc1nc(-c2cc(C(=O)NCc3ccccc3)ccc2C)c2ccc(=O)n(-c3c(F)cccc3F)c2n1` [Example 59, 3-(8-(2,6-difluorophenyl)-2-{[2-(methylamino)ethyl]amino}-7-oxo-7,8-dihydropyrido[2,3-d]pyrimidin-4-yl)-4-methyl-N-(phenylmethyl)benzamide], “statistically significant inhibition”.

The record behind these values is patent US8207176B2 (Glaxo Group Limited, priority 2005, dated 2012).
